EPA's ToxRefDB 2

Legend:
dog [1] = details: Chronic toxicity, beagle, Oral, Capsule, dose end: 52 week
rat [2] = details: Multigenerational reproductive toxicity study, sprague dawley, Oral, Feed, dose end: 2 generation
mouse [3] = details: Carcinogenicity, cd1, Oral, Feed, dose end: 2 year, group: systemic
rat [4] = details: Combined chronic toxicity/carcinogenicity, sprague dawley, Oral, Feed, dose end: 24 month
rat [5] = details: Subchronic oral toxicity in rodents, fischer, Feed, dose end: 13 week, group: systemic
dog [6] = details: Subchronic oral toxicity in nonrodent, beagle, Feed, dose end: 13 week, group: systemic
mouse [7] = details: Subchronic oral toxicity in rodents, cd1, Feed, dose end: 13 week, group: systemic, systemic / clinical chemistry / alkaline phosphatase (alp/alk) / alkaline phosphatase (alp/alk) + systemic / organ weight / liver / nos + …
dog [8] = details: Chronic toxicity, beagle, Oral, Feed, dose end: 52 week, group: systemic
rat [9] = details: Combined chronic toxicity/carcinogenicity, fischer, Oral, Feed, dose end: 2 year, group: systemic
rat [10] = details: Multigenerational reproductive toxicity study, other, Oral, Feed, dose end: 2 generation
dog [11] = details: Chronic toxicity, beagle, Oral, Feed, dose end: 52 week, group: systemic; remark: listed apart in the source
mouse [12] = details: Subchronic oral toxicity in rodents, cd1, Feed, dose end: 98 day, group: systemic, systemic / organ weight / liver / absolute + systemic / organ weight / liver / relative to body weight + systemic / pathology microscopic / …
rabbit = details: Prenatal developmental toxicity study, new zealand white, Oral, Gavage/Intubation, dose end: 18 GD
rat [13] = details: Combined chronic toxicity/carcinogenicity, wistar, Oral, Feed, dose end: 24 month, group: systemic
mouse [14] = details: Carcinogenicity, other, Oral, Feed, dose end: 24 month, group: systemic
rat [15] = details: Subchronic oral toxicity in rodents, wistar, Feed, dose end: 98 day, group: systemic
rat [16] = details: Prenatal developmental toxicity study, sprague dawley, Oral, Gavage/Intubation, dose end: 15 GD
[17] = group: cholinesterase, cholinesterase / cholinesterase / cholinesterase / brain cholinesterase (che) + cholinesterase / cholinesterase / cholinesterase / plasma …
[18] = group: systemic, systemic / in life observation / body weight / body weight gain + systemic / in life observation / food consumption / food efficiency + …
[19] = group: offspring, developmental / offspring survival late / lactation index / lactation index
[20] = group: offspring, systemic / in life observation / body weight / offspring (pup) weight
[21] = group: parental, systemic / in life observation / body weight / body weight
[22] = group: reproductive, reproductive / offspring survival early / litter size / litter size
[23] = group: reproductive, reproductive / offspring survival early / litter size / litter size + reproductive / offspring survival early / litter viability other / …
[24] = systemic / in life observation / mortality / mortality + systemic / hematology / lymphocyte / lymphocyte + systemic / in life observation / …
[25] = group: cholinesterase, cholinesterase / cholinesterase / cholinesterase / brain cholinesterase (che) + cholinesterase / cholinesterase / cholinesterase / …
[26] = group: systemic, systemic / in life observation / mortality / mortality
[27] = group: systemic, systemic / in life observation / mortality / mortality + systemic / clinical chemistry / alanine aminotransferase (alt/sgpt) / alanine …
[28] = systemic / clinical chemistry / albumin / albumin + systemic / clinical chemistry / cholesterol / cholesterol + systemic / clinical …
[29] = systemic / pathology microscopic / kidney / crystals + systemic / pathology microscopic / kidney / hyperplasia + systemic / organ weight / …
[30] = systemic / pathology microscopic / kidney / hyperplasia + systemic / in life observation / body weight / body weight gain + systemic / in …
[31] = systemic / in life observation / body weight / body weight + systemic / in life observation / body weight / body weight gain + systemic / …
[32] = group: offspring, systemic / in life observation / body weight / offspring (pup) weight gain
[33] = group: parental, systemic / organ weight / liver / relative to body weight
[34] = group: parental, systemic / pathology microscopic / kidney / crystals + systemic / pathology microscopic / kidney / degeneration + systemic / pathology …
[35] = systemic / clinical chemistry / alanine aminotransferase (alt/sgpt) / alanine aminotransferase (alt/sgpt) + systemic / clinical chemistry / …
[36] = systemic / pathology microscopic / spleen / hemosiderosis + systemic / pathology microscopic / liver / cytoplasmic alteration
[37] = group: developmental, developmental / developmental malformation / bone / incomplete ossification
[38] = group: maternal, systemic / in life observation / body weight / body weight gain + systemic / in life observation / food consumption / food consumption
[39] = systemic / clinical chemistry / creatinine / creatinine
[40] = systemic / clinical chemistry / albumin-globulin ratio / albumin-globulin ratio + systemic / clinical chemistry / glucose / glucose
[41] = systemic / pathology microscopic / liver / fatty change + systemic / pathology microscopic / liver / granuloma + systemic / pathology …
[42] = systemic / in life observation / body weight / body weight + systemic / in life observation / body weight / body weight gain + systemic / in…
[43] = group: developmental, developmental / developmental malformation / bone / absent + developmental / developmental malformation / bone / delayed ossification + …
[44] = group: maternal, systemic / in life observation / clinical signs / abnormal gait + systemic / in life observation / body weight / body weight + systemic / in…

COP(=O)(OC)O/C(C)=C/C(=O)N(C)C [Dicrotophos]
LEL (dog [1]; [17]): 0.1 mg/kg/day
LOAEL (dog [1]; [17]): 0.1 mg/kg/day
NEL (dog [1]; [17]): 0.025 mg/kg/day
NOAEL (dog [1]; [17]): 0.025 mg/kg/day
LOAEL (dog [1]; group: systemic, systemic / in life observation / body weight / body weight gain + systemic / in life observation / food consumption / food efficiency): 0.1 mg/kg/day
LEL (dog [1]; [18]): 0.1 mg/kg/day
NEL (dog [1]; [18]): 0.025 mg/kg/day
NOAEL (dog [1]; [18]): 0.025 mg/kg/day
LOAEL (rat [2]; [19]): > 2.53 mg/kg/day
NOAEL (rat [2]; [19]): ≥ 2.53 mg/kg/day
LEL (rat [2]; [20]): 0.05 mg/kg/day
NEL (rat [2]; [20]): < 0.05 mg/kg/day
LEL (rat [2]; [21]): 0.06 mg/kg/day
NEL (rat [2]; [21]): < 0.06 mg/kg/day
LOAEL (rat [2]; group: parental, systemic / in life observation / body weight / body weight + systemic / in life observation / food consumption / food efficiency): 0.49 mg/kg/day
NOAEL (rat [2]; group: parental, systemic / in life observation / body weight / body weight + systemic / in life observation / food consumption / food efficiency + systemic…): 0.05 mg/kg/day
LEL (rat [2]; [22]): 0.56 mg/kg/day
LOAEL (rat [2]; [22]): 0.56 mg/kg/day
NEL (rat [2]; [23]): 0.05 mg/kg/day
NOAEL (rat [2]; [23]): 0.05 mg/kg/day
LOAEL (mouse [3]; systemic / in life observation / mortality / mortality): 1.58 mg/kg/day
NEL (mouse [3]; [24]): 0.31 mg/kg/day
NOAEL (mouse [3]; [24]): 0.31 mg/kg/day
LEL (mouse [3]; systemic / in life observation / mortality / mortality + systemic / pathology gross / eye / discolored): 1.58 mg/kg/day
LEL (rat [4]; [25]): 0.02 mg/kg/day
LOAEL (rat [4]; [25]): 0.02 mg/kg/day
NEL (rat [4]; [25]): < 0.02 mg/kg/day
NOAEL (rat [4]; [25]): < 0.02 mg/kg/day
LEL (rat [4]; [26]): 0.25 mg/kg/day
LOAEL (rat [4]; [26]): 0.25 mg/kg/day
NEL (rat [4]; [27]): 0.02 mg/kg/day
NOAEL (rat [4]; [27]): 0.02 mg/kg/day

COc1cnc(OC)n2nc(NS(=O)(=O)c3c(OCC(F)F)cccc3C(F)(F)F)nc12 [Penoxsulam]
LOAEL (rat [5]; [28]): 263 mg/kg/day
NOAEL (rat [5]; [28]): 53.3 mg/kg/day
LEL (rat [5]; systemic / in life observation / clinical signs / perineal soiling): 52.3 mg/kg/day
NEL (rat [5]; systemic / in life observation / clinical signs / perineal soiling + systemic / hematology / blood clotting / blood clotting - prothrombin …): 5.2 mg/kg/day
LOAEL (dog [6]; systemic / pathology microscopic / kidney / crystals + systemic / pathology microscopic / kidney / hyperplasia): 49.4 mg/kg/day
LEL (dog [6]; [29]): 49.4 mg/kg/day
NEL (dog [6]; [29]): 17.8 mg/kg/day
NOAEL (dog [6]; [29]): 17.8 mg/kg/day
LEL (mouse [7]): 511 mg/kg/day
LOAEL (mouse [7]): > 1030 mg/kg/day
NEL (mouse [7]): 102 mg/kg/day
NOAEL (mouse [7]): ≥ 1030 mg/kg/day
LOAEL (dog [8]; systemic / pathology microscopic / kidney / hyperplasia): 46.2 mg/kg/day
LEL (dog [8]; [30]): 46.2 mg/kg/day
NEL (dog [8]; [30]): 14.7 mg/kg/day
NOAEL (dog [8]; [30]): 14.7 mg/kg/day
LOAEL (rat [9]; [31]): 254 mg/kg/day
NEL (rat [9]; [31]): 5.1 mg/kg/day
NOAEL (rat [9]; [31]): 50.9 mg/kg/day
LEL (rat [9]; systemic / pathology microscopic / kidney / hyperplasia + systemic / in life observation / clinical signs / perineal soiling): 50.9 mg/kg/day
LEL (rat [10]; group: offspring, developmental / developmental landmark / preputial separation / preputial separation): 100 mg/kg/day
LOAEL (rat [10]; [32]): 300 mg/kg/day
NOAEL (rat [10]; [32]): 100 mg/kg/day
NEL (rat [10]; group: offspring, systemic / in life observation / body weight / offspring (pup) weight gain + developmental / developmental landmark / preputial separation…): 30 mg/kg/day
LEL (rat [10]; [33]): 30 mg/kg/day
NEL (rat [10]; [33]): < 30 mg/kg/day
LOAEL (rat [10]; [34]): 100 mg/kg/day
NOAEL (rat [10]; [34]): 30 mg/kg/day

CCC/C(=N\OCC)C1=C(O)CC(CC(C)SCC)CC1=O (stereo unspecified) [Sethoxydim]
LOAEL (dog [11]; [35]): 110 mg/kg/day
NOAEL (dog [11]; [35]): 17.5 mg/kg/day
LEL (dog [11]; [36]): 8.7 mg/kg/day
NEL (dog [11]; [36]): < 8.7 mg/kg/day
LEL (mouse [12]): 137 mg/kg/day
LOAEL (mouse [12]): 137 mg/kg/day
NEL (mouse [12]): 45.6 mg/kg/day
NOAEL (mouse [12]): 45.6 mg/kg/day
LEL (rabbit; [37]): 400 mg/kg/day
LOAEL (rabbit; [37]): 400 mg/kg/day
NEL (rabbit; [37]): 160 mg/kg/day
NOAEL (rabbit; [37]): 160 mg/kg/day
LEL (rabbit; [38]): 400 mg/kg/day
LOAEL (rabbit; [38]): 400 mg/kg/day
NEL (rabbit; [38]): 160 mg/kg/day
NOAEL (rabbit; [38]): 160 mg/kg/day
LEL (rat [13]; [39]): 12 mg/kg/day
NEL (rat [13]; [39]): < 12 mg/kg/day
LOAEL (rat [13]; systemic / pathology microscopic / liver / hypertrophy): 48 mg/kg/day
NOAEL (rat [13]; systemic / pathology microscopic / liver / hypertrophy + systemic / clinical chemistry / alkaline phosphatase (alp/alk) / alkaline …): 12 mg/kg/day
LEL (mouse [14]; [40]): 4.85 mg/kg/day
NEL (mouse [14]; [40]): < 4.85 mg/kg/day
LOAEL (mouse [14]; [41]): 41.2 mg/kg/day
NOAEL (mouse [14]; [41]): 13.8 mg/kg/day
LOAEL (rat [15]; [42]): 196 mg/kg/day
NEL (rat [15]; [42]): 20.1 mg/kg/day
NOAEL (rat [15]; [42]): 60.4 mg/kg/day
LEL (rat [15]; systemic / organ weight / liver / relative to body weight + systemic / pathology microscopic / liver / hypertrophy): 60.4 mg/kg/day
LEL (rat [16]; group: developmental, developmental / developmental malformation / bone / absent): 180 mg/kg/day
LOAEL (rat [16]; [43]): 650 mg/kg/day
NEL (rat [16]; [43]): 50 mg/kg/day
NOAEL (rat [16]; [43]): 180 mg/kg/day
LOAEL (rat [16]; group: maternal, systemic / in life observation / clinical signs / abnormal gait): 180 mg/kg/day
NEL (rat [16]; [44]): 180 mg/kg/day
NOAEL (rat [16]; [44]): 50 mg/kg/day
LEL (rat [16]; group: maternal, systemic / in life observation / clinical signs / abnormal gait + systemic / in life observation / clinical signs / anogenital staining + …): 650 mg/kg/day
